{"source": "the supplement of paper PMC11208160", "assay": "recombinant barcode read abundance after kanamycin selection (control-corrected) (log10(CPM+1)); higher = more efficient recombination; sequences stand for … in AGTGCAGAGAAAATCGGCCAGTTTTCTCTGCCTGCAGTCCGCATGCCGT…ATTTATGCAGCGGACTGCCTTTCTCCCAAAGTGATAAACCGGACAGTATCATGGACCGGTTTTCCCGGTAATCCGTATTTGCAAGGTTGGTTTCACT; site = the 11-nt target", "outline": "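Targets were screened in pooled form in E. coli against IS621 bridge RNA target-binding loops. Recombination efficiency is based on barcode counts at recombinant junctions in counts per million, averaged and corrected for the control. Numbers are shown as log10(CPM+1), with duplicate plates on chloramphenicol/ampicillin LB agar (control) or chloramphenicol/ampicillin/kanamycin with 0.1 mM IPTG.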"}
{"sequence": "GGGCGGACGTGGGTTCTAACCTGTTGCGGAG [GGGCGGACTCC_LTGcore_CG_RTGcore_CT] (site GGGCGGACTCC) (LTG core: CG, RTG core: CT)", "values": [{"measurement": "recombinant barcode read abundance (log10)", "result": 1.66}]}
{"sequence": "GGGCGGACTTGGGTTCTAACCTGTTGCGGGC [GGGCGGACTCC_LTGcore_CT_RTGcore_GC] (site GGGCGGACTCC) (LTG core: CT, RTG core: GC)", "values": [{"measurement": "recombinant barcode read abundance (log10)", "result": 0.131}]}
{"sequence": "GGGCGGACTTGGGTTCTAACCTGTTGCGGGT [GGGCGGACTCC_LTGcore_CT_RTGcore_AC] (site GGGCGGACTCC) (LTG core: CT, RTG core: AC)", "values": [{"measurement": "recombinant barcode read abundance (log10)", "result": 0.273}]}
{"sequence": "GGGCGGAGTTGGGTTCTAACCTGTTGCGGAG [GGGCGGACTCC_LTGcore_GT_RTGcore_CT] (site GGGCGGACTCC) (LTG core: GT, RTG core: CT)", "values": [{"measurement": "recombinant barcode read abundance (log10)", "result": 0.389}]}
{"sequence": "GGGCGGATCTGGGTTCTAACCTGTTGCGGGA [GGGCGGACTCC_LTGcore_TC_RTGcore_TC] (site GGGCGGACTCC) (LTG core: TC, RTG core: TC)", "values": [{"measurement": "recombinant barcode read abundance (log10)", "result": 0.265}]}
{"sequence": "GGGCGTGAGTGGGTTCTAACCTGTTGCCTAG [GGGCGTGCTAG_LTGcore_AG_RTGcore_CT] (site GGGCGTGCTAG) (LTG core: AG, RTG core: CT)", "values": [{"measurement": "recombinant barcode read abundance (log10)", "result": 0.154}]}
{"sequence": "GGGCGTGATTGGGTTCTAACCTGTTGCCTAT [GGGCGTGCTAG_LTGcore_AT_RTGcore_AT] (site GGGCGTGCTAG) (LTG core: AT, RTG core: AT)", "values": [{"measurement": "recombinant barcode read abundance (log10)", "result": 0.0806}]}
{"sequence": "GGGCGTGCTTGGGTTCTAACCTGTTGCCTCA [GGGCGTGCTAG_LTGcore_CT_RTGcore_TG] (site GGGCGTGCTAG) (LTG core: CT, RTG core: TG)", "values": [{"measurement": "recombinant barcode read abundance (log10)", "result": 1.06}]}
{"sequence": "GGGCGTGCTTGGGTTCTAACCTGTTGCCTGG [GGGCGTGCTAG_LTGcore_CT_RTGcore_CC] (site GGGCGTGCTAG) (LTG core: CT, RTG core: CC)", "values": [{"measurement": "recombinant barcode read abundance (log10)", "result": 0.301}]}
{"sequence": "GGGCGTGCTTGGGTTCTAACCTGTTGCCTTG [GGGCGTGCTAG_LTGcore_CT_RTGcore_CA] (site GGGCGTGCTAG) (LTG core: CT, RTG core: CA)", "values": [{"measurement": "recombinant barcode read abundance (log10)", "result": 0.0774}]}
{"sequence": "GGGCGTGGATGGGTTCTAACCTGTTGCCTTC [GGGCGTGCTAG_LTGcore_GA_RTGcore_GA] (site GGGCGTGCTAG) (LTG core: GA, RTG core: GA)", "values": [{"measurement": "recombinant barcode read abundance (log10)", "result": 0.0142}]}
{"sequence": "GGGCGTGGCTGGGTTCTAACCTGTTGCCTGC [GGGCGTGCTAG_LTGcore_GC_RTGcore_GC] (site GGGCGTGCTAG) (LTG core: GC, RTG core: GC)", "values": [{"measurement": "recombinant barcode read abundance (log10)", "result": 0}]}
{"sequence": "GGGCGTGGGTGGGTTCTAACCTGTTGCCTAG [GGGCGTGCTAG_LTGcore_GG_RTGcore_CT] (site GGGCGTGCTAG) (LTG core: GG, RTG core: CT)", "values": [{"measurement": "recombinant barcode read abundance (log10)", "result": 0.188}]}
{"sequence": "GGGCGTGGTTGGGTTCTAACCTGTTGCCTAG [GGGCGTGCTAG_LTGcore_GT_RTGcore_CT] (site GGGCGTGCTAG) (LTG core: GT, RTG core: CT)", "values": [{"measurement": "recombinant barcode read abundance (log10)", "result": 0.0791}]}
{"sequence": "GGGCGTGTCTGGGTTCTAACCTGTTGCCTAG [GGGCGTGCTAG_LTGcore_TC_RTGcore_CT] (site GGGCGTGCTAG) (LTG core: TC, RTG core: CT)", "values": [{"measurement": "recombinant barcode read abundance (log10)", "result": 0.241}]}
{"sequence": "GGGCGTGTTTGGGTTCTAACCTGTTGCCTAA [GGGCGTGCTAG_LTGcore_TT_RTGcore_TT] (site GGGCGTGCTAG) (LTG core: TT, RTG core: TT)", "values": [{"measurement": "recombinant barcode read abundance (log10)", "result": 0.0616}]}
{"sequence": "GGTGCCCAATGGGTTCTAACCTGTTGCCGTT [GGTGCCCCTCG_LTGcore_AA_RTGcore_AA] (site GGTGCCCCTCG) (LTG core: AA, RTG core: AA)", "values": [{"measurement": "recombinant barcode read abundance (log10)", "result": 0.404}]}
{"sequence": "GGTGCCCATTGGGTTCTAACCTGTTGCCGAT [GGTGCCCCTCG_LTGcore_AT_RTGcore_AT] (site GGTGCCCCTCG) (LTG core: AT, RTG core: AT)", "values": [{"measurement": "recombinant barcode read abundance (log10)", "result": 0.0482}]}
{"sequence": "GGTGCCCCCTGGGTTCTAACCTGTTGCCGAG [GGTGCCCCTCG_LTGcore_CC_RTGcore_CT] (site GGTGCCCCTCG) (LTG core: CC, RTG core: CT)", "values": [{"measurement": "recombinant barcode read abundance (log10)", "result": 0.15}]}
{"sequence": "GGTGCCCCCTGGGTTCTAACCTGTTGCCGGG [GGTGCCCCTCG_LTGcore_CC_RTGcore_CC] (site GGTGCCCCTCG) (LTG core: CC, RTG core: CC)", "values": [{"measurement": "recombinant barcode read abundance (log10)", "result": 0.387}]}
{"sequence": "GGTGCCCCGTGGGTTCTAACCTGTTGCCGAG [GGTGCCCCTCG_LTGcore_CG_RTGcore_CT] (site GGTGCCCCTCG) (LTG core: CG, RTG core: CT)", "values": [{"measurement": "recombinant barcode read abundance (log10)", "result": 0.0559}]}
{"sequence": "GGTGCCCCGTGGGTTCTAACCTGTTGCCGCG [GGTGCCCCTCG_LTGcore_CG_RTGcore_CG] (site GGTGCCCCTCG) (LTG core: CG, RTG core: CG)", "values": [{"measurement": "recombinant barcode read abundance (log10)", "result": 0.329}]}
{"sequence": "GGTGCCCCTTGGGTTCTAACCTGTTGCCGGA [GGTGCCCCTCG_LTGcore_CT_RTGcore_TC] (site GGTGCCCCTCG) (LTG core: CT, RTG core: TC)", "values": [{"measurement": "recombinant barcode read abundance (log10)", "result": 0.0539}]}
{"sequence": "GGTGCCCCTTGGGTTCTAACCTGTTGCCGGG [GGTGCCCCTCG_LTGcore_CT_RTGcore_CC] (site GGTGCCCCTCG) (LTG core: CT, RTG core: CC)", "values": [{"measurement": "recombinant barcode read abundance (log10)", "result": 0.295}]}
{"sequence": "GGTGCCCCTTGGGTTCTAACCTGTTGCCGTG [GGTGCCCCTCG_LTGcore_CT_RTGcore_CA] (site GGTGCCCCTCG) (LTG core: CT, RTG core: CA)", "values": [{"measurement": "recombinant barcode read abundance (log10)", "result": 0.126}]}
{"sequence": "GGTGCCCGCTGGGTTCTAACCTGTTGCCGGC [GGTGCCCCTCG_LTGcore_GC_RTGcore_GC] (site GGTGCCCCTCG) (LTG core: GC, RTG core: GC)", "values": [{"measurement": "recombinant barcode read abundance (log10)", "result": 0.148}]}
{"sequence": "GGTGCCCTATGGGTTCTAACCTGTTGCCGTA [GGTGCCCCTCG_LTGcore_TA_RTGcore_TA] (site GGTGCCCCTCG) (LTG core: TA, RTG core: TA)", "values": [{"measurement": "recombinant barcode read abundance (log10)", "result": 0.298}]}
{"sequence": "GGTGCCCTGTGGGTTCTAACCTGTTGCCGAG [GGTGCCCCTCG_LTGcore_TG_RTGcore_CT] (site GGTGCCCCTCG) (LTG core: TG, RTG core: CT)", "values": [{"measurement": "recombinant barcode read abundance (log10)", "result": 0.108}]}
{"sequence": "GTCGCCCAATGGGTTCTAACCTGTTGCTATT [GTCGCCCCTTA_LTGcore_AA_RTGcore_AA] (site GTCGCCCCTTA) (LTG core: AA, RTG core: AA)", "values": [{"measurement": "recombinant barcode read abundance (log10)", "result": 0.305}]}
{"sequence": "GTCGCCCCGTGGGTTCTAACCTGTTGCTACG [GTCGCCCCTTA_LTGcore_CG_RTGcore_CG] (site GTCGCCCCTTA) (LTG core: CG, RTG core: CG)", "values": [{"measurement": "recombinant barcode read abundance (log10)", "result": 0.316}]}
{"sequence": "GTCGCCCCTTGGGTTCTAACCTGTTGCTAAC [GTCGCCCCTTA_LTGcore_CT_RTGcore_GT] (site GTCGCCCCTTA) (LTG core: CT, RTG core: GT)", "values": [{"measurement": "recombinant barcode read abundance (log10)", "result": 0.102}]}
{"sequence": "GTCGCCCCTTGGGTTCTAACCTGTTGCTAAG [GTCGCCCCTTA_LTGcore_CT_RTGcore_CT] (site GTCGCCCCTTA) (LTG core: CT, RTG core: CT)", "values": [{"measurement": "recombinant barcode read abundance (log10)", "result": 0.234}]}
{"sequence": "GTCGCCCCTTGGGTTCTAACCTGTTGCTATA [GTCGCCCCTTA_LTGcore_CT_RTGcore_TA] (site GTCGCCCCTTA) (LTG core: CT, RTG core: TA)", "values": [{"measurement": "recombinant barcode read abundance (log10)", "result": 0.0812}]}
{"sequence": "GTCGCCCCTTGGGTTCTAACCTGTTGCTATG [GTCGCCCCTTA_LTGcore_CT_RTGcore_CA] (site GTCGCCCCTTA) (LTG core: CT, RTG core: CA)", "values": [{"measurement": "recombinant barcode read abundance (log10)", "result": 0.725}]}
